Measured values taken from patent publication US6228889A, “Methods for treatment of conditions associated with lactosylceramide” (priority 1999, dated 2001).
One block for each molecule: values may come before it.

Tests used:
Eahy 926 cells = test: Superoxide production by intact Eahy 926 (lucigenin chemiluminescence); format: cell-based, human; conditions: 5 μM LacCer after 5 minutes, intact Eahy 926 cells
NADH oxidase = NADH oxidase assay in membrane preparations of Eahy 926 cells; format: biochemical, human; conditions: 5 μM LacCer
NF-kB = NF-kB DNA binding assay (gel mobility shift) in Eahy 926 cells; format: cell-based, human; conditions: 5 μM LacCer
VCAM-1 = VCAM-1 expression in Eahy 926; format: cell-based, human; conditions: Eahy 926, LacCer
P-selectin = P-selectin expression in Eahy 926; format: cell-based, human; conditions: Eahy 926, LacCer
[1] = system: neutrophil adhesion to Eahy 926 cells; test: Confocal microscopic study of adhesion of human neutrophils to Eahy 926 endothelial cells; format: cell-based; conditions: LacCer 5 μM, 4 hours
p150,95 = test: Flowcytometric analysis of p150,95 expression on PMNs; format: cell-based, human; conditions: 20 minutes
Procedure: (§1) 10. Flowcytometric Analysis of the Expression of Adhesion Molecules on PMNs. Treated PMNs were rapidly cooled on ice, washed twice with cold washing buffer (PBS containing 0.1% BSA and 0.1% sodium azide), and then incubated with either monoclonal (m) anti-human (h) LFA-1 (CD11 a), m-anti-h Mac-1 (CD 11b), m-anti-h p150,95 (CD 11 c) or m-anti-h L-selectin (all from PharMingen., San Diego, Calif.), followed by FITC-conjugated m-anti-mouse IgG (American Qualex, San Clement, Calif.). The PMNs were gated by forward and side scattering for analysis by FACScan (Becton Dickinson, Cockeysville, Md.).

CD11a/CD18 (LFA-1) = test: Flowcytometric analysis of LFA-1 expression on PMNs; format: cell-based, human; conditions: 20 minutes
Procedure: as §1

L-selectin = test: Flowcytometric analysis of L-selectin expression on PMNs; format: cell-based, human; conditions: 20 minutes
Procedure: as §1

PMNs [2] = test: ROM generation by PMNs (DCFH-DA); format: cell-based, human; conditions: DCFH-DA, 45 minutes
PMNs [3] = test: Superoxide generation in PMNs (lucigenin); format: cell-based, human; conditions: 100 nmol LacCer 20 minutes, no inhibitor, PMNs
[4] = system: PMN adhesion to unstimulated endothelial cells; test: PMN-endothelial adhesion assay; format: cell-based, human; conditions: PMNs incubated with LacCer, washed
Procedure: 12. PMN-Endothelial Adhesion Assay. PMNs were labeled fluorescently by incubation with 5 μmol/L Calcein-AM (Molecular Probes) in calcium-free PBS for 20 minutes at 37° C., washed and resuspended in Hanks' balanced salt solution (Gibco) containing 0.2% bovine serum albumin (BSA). These PMNs were then treated with LacCer (or vehicle, 0.05% DMSO), washed 3 times with PBS and then plated on the unstimulated ec monolayers, which had been grown to confluence in 24-well plates. The PMNs (600 μL of 2×10^6 /mL/well) then were incubated with the ecs for 30 minutes at 37° C. Non-adherent PMNs were then removed by gentle washing 3 times with PBS. The residual adherent PMNs (and ecs) were then lysed using 4mmol/L Zwittergent Calbiochem, La Jolla, Calif.) and the plates read on a fluorescence plate reader (Millipore) at EX 480 nm/EM 530 nm. The number of adherent PMNs were expressed as number of PMN/mm^2 ec monolayer, based on the mean fluorescent intensity of each PMN, as determined from a standard curve. 13. Additional Methods. LacCer, ceramide and […] (all from Sigma) were prepared as described in examples below, and used as putative agonists for the stimulation of PMN adhesion molecule expression, assayed by FACScan. […]

PMNs [5] = test: [3H] arachidonic acid release from labeled PMNs; format: cell-based, human; conditions: 100 nmol/L LacCer, 30 minutes at 37° C.
NADPH oxidase = conditions: eahy 926 cell membranes, 5 min, 5 µM
Mac-1 (CD11b/CD18) = conditions: pmns, 20 min, 0.1 µM
restenosis = conditions: patients, reported in literature; cited from earlier work

maximal expression of ICAM-1 as compared to control (ICAM-1; eahy 926 cells, 6 h, 5 µM): 7 fold
stimulation of NADPH oxidase activity versus non-stimulated cell membrane preparations (NADPH oxidase): about 3 fold
maximum stimulation of Mac-1 level compared to control (Mac-1 (CD11b/CD18)): 2.5 fold
Molecule: lactosylceramide [LacCer]
maximum generation of O2- (Eahy 926 cells): 2.7 nmol/mni/mg protein
NADH oxidase activity in LacCer stimulated/non stimulated membrane preparations (NADH oxidase): remained unchanged
nuclear concentration of NF-kB (NF-kB): time dependent increase
expression of VCAM-1 (VCAM-1): did not stimulate measurable expression
expression of P-selectin (P-selectin): did not stimulate measurable expression
adhesion of neutrophils to the endothelial cell monolayer [1]: markedly stimulated
level of p150,95 (p150,95; LacCer 200 nmol/L): decreased
level of p150,95 (p150,95; LacCer 50-100 nmol/L): increased
level of CD11a/CD18 (LFA-1) (CD11a/CD18 (LFA-1); LacCer higher concentrations): downregulated
level of CD11a/CD18 (LFA-1) (CD11a/CD18 (LFA-1); LacCer lower concentrations): did not change
level of L-selectin (L-selectin; LacCer higher concentrations): downregulated
level of L-selectin (L-selectin; LacCer lower concentrations): did not change
ROM stimulation in PMNs (PMNs [2]): positive, dose-dependent response
superoxide levels compared with controls (PMNs [3]): about two
PMN adhesion to unstimulated ec monolayers [4]: increased
[3H] AA release from labeled PMNs (PMNs [5]): increased
stimulation of ICAM-1 expression by GSLs (ICAM-1; intact Eahy 926 cells, GSLs 10 μM, gangliosides up to 50 μM): specifically stimulated

Molecule: CC(C)(Sc1cc(C(C)(C)C)c(O)c(C(C)(C)C)c1)Sc1cc(C(C)(C)C)c(O)c(C(C)(C)C)c1 [probucol]
restenosis after angioplasty (restenosis): reduce restenosis in some patients
